# Measurements reported in patent US20040076668A1, “Controlled-release pharmaceutical formulations” (Pfizer Inc., priority 2002, published 2004).
# Like-named read-outs stand apart in the source and are kept apart here.
# Assays:
# [1] = Human in vivo oral dosage escalation studies: nausea and emesis side-effects; settings: human, in vivo, immediate-release formulations, human
# Experimental: (§1) In Tables 13 and 14, standard deviation values are reported parenthetically. Furthermore, a “Yes” entry means greater than half of the subjects experienced the indicated side-effect, while a “No” entry indicates none, or less than half, of the subjects experienced the indicated side-effect.
# (§2) The 3 mg dosages of compound (I) indicated in Tables 13 and 14 comprised the simultaneous administration of three 1 mg tablets of the SCT formulations of the present invention. Likewise, the 30 mg dosages of compound (I) comprised the simultaneous administration of three 10 mg tablets of the SCT formulations of the present invention.
# (§3) The OPC immediate-release formulations comprising compound (I) were prepared extemporaneously by diluting powdered sodium citrate with water to a final concentration of 0.02 M and dissolving compound (I) therein with stirring. The prepared solution was then orally administered to the subject.
# (§4) Analysis of such data will establish the relationship between the plasma pharmacokinetics and nausea and emesis side-effects in human subjects administered with dosages of compound (I). At Cmax values of less than 60 ng/mL, compound (I) was generally well tolerated. […] Dosages of compound (I) greater than 10 mg in the fasted state, and 30 mg in the fed state, could not be successfully administered due to the severity of the resulting nausea and emesis.
# (§5) In some subjects given the 30 mg dosage in the fed state, the peak concentrations were in excess of 250 ng/mL, with the mean being 198 ng/mL. Predicated upon a Cmax threshold of 200 ng/mL for emesis, a much higher incidence of emesis would have been predicted to occur at this dosage.
# [2] = test system: human subjects; assay: as above; settings: for dosages that could not be successfully administered due to the severity of nausea and emesis: immediate-release, human
# Experimental: as §1, §2, §3, §4, §5
# [3] = Dissolution as a function of dissolution media pH; assay type: physicochemical; settings: at the lower pH (simulated gastric fluid pH 1.2); sink conditions cannot be maintained
# Experimental: In order to determine the amount of compound (I) dissolved in simulated gastric fluid at pH 1.2, the amount remaining in the formulations was assayed and subtracted from the amount initially present. This procedure was employed because, at the lower pH, the solubility of compound (I) is lower and sink conditions cannot be maintained during dissolution. [formula] [formula]
# [4] = concluded from the IR formulation data
smiles,measurement,setting,value
"C[C@@H](Oc1ccc(CNC(=O)c2cccnc2Oc2ccc3c(c2)OCO3)c(F)c1)C(=O)O [Compound (I), (R)-2-[4-({[2-(Benzo[1,3]dioxol-5-yloxy)-pyridine-3-carbonyl]-amino}-methyl)-3-fluoro-phenoxy]-propionic Acid]",Cmax,[1]; read-out: threshold for emesis (Cmax),~0.2 µg/mL
same,Cmax,[1]; read-out: threshold for nausea (Cmax),~0.06 µg/mL
same,Cmax/Tmax ratio that will maintain a low incidence for emesis,[2]; [4],less than 100 ng/ml/hr
same,Cmax/Tmax ratio that will maintain a low incidence of nausea,[2]; [4],less than 40 ng/ml/hr
same,dosages that could not be successfully administered due to the severity of nausea and emesis,[2]; fasted state,greater than 10 mg
same,dosages that could not be successfully administered due to the severity of nausea and emesis,[2]; fed state,> 30 mg
same,solubility of compound (I),[3],lower
